Assay results from paper PMC8584730, “Bacillus subtilis ANSB168 Producing D-alanyl-D-alanine Carboxypeptidase Could Alleviate the Immune Injury and Inflammation Induced by Ochratoxin A” (International Journal of Molecular Sciences, 2021).

Tests used:
[1] = target: T1, DacB (Bacillus subtilis, UniProt P35150); test: HPLC-fluorescence of OTA hydrolysis; type: biochemical; conditions: 37 °C, optimal pH 7.5; amide bond hydrolysis to ochratoxin alpha
T1 construct: mature form without signal peptide (forward primer encodes Met-Ala-Ile-Asp-Val)

[2] = target: T2, DacA (Bacillus subtilis, UniProt P08750); test: HPLC-fluorescence of OTA hydrolysis; type: biochemical; conditions: 37 °C, optimal pH 7.0; amide bond hydrolysis to ochratoxin alpha
T2 construct: mature form without signal peptide (forward primer encodes Met-Ala-Ser-Asp)
T2 sequence (P08750 32-443): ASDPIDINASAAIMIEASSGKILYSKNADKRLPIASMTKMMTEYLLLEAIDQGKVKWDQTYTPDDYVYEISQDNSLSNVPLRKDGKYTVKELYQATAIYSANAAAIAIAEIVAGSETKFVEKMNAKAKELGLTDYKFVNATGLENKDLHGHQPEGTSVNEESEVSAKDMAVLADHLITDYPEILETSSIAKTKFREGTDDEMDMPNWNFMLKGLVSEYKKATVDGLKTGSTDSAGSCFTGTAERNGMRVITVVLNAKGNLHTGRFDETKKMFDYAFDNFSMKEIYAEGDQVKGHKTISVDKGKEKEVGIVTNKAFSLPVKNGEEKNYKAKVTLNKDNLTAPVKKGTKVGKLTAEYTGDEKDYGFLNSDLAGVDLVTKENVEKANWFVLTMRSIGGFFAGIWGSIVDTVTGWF

T1 sequence (P35150 28-382): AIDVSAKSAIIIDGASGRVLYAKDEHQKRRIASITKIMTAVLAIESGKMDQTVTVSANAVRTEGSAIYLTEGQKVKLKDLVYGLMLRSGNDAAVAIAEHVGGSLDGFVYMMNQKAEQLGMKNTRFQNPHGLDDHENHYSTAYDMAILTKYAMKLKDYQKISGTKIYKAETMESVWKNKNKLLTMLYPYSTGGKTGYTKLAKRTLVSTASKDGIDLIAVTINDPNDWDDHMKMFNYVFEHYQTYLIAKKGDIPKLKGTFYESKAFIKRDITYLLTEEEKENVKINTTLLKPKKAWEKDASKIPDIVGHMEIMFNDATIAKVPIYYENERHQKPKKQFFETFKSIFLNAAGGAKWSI

C[C@@H]1Cc2c(Cl)cc(C(=O)N[C@@H](Cc3ccccc3)C(=O)O)c(O)c2C(=O)O1 [Ochratoxin A, 7-carboxyl-5-chloro-8-hydroxyl-3,4-dihydro-3R-methyl-isocoumarin-7-L-β-phenylalanine]
Km [1]: 2.82 µM
Km [2]: 6.79 µM
